These results are taken from patent US8461083B2, “Herbicidal compounds” (Syngenta Limited, priority 2008, dated 2013).

Structures are written as SMILES.

Type in all cases: in vivo
The test system of test [1] is Amaranthus retoflexus (AMARE). The experiment in a line: Post-emergence herbicidal glasshouse test. Conditions: post-emergence (sprayed after 8 days cultivation), evaluated after 13 days, 100=total damage to plant, 0=no damage to plant; for POST Application AMARE, damage to plant: 1000 g/ha; for pest or weed control at 1000 g/ha: Amaranthus retroflexus, 312 h, read-out: POST Application AMARE, damage to plant. As to the method:
(§1) Seeds of a variety of test species were sown in standard soil in pots (Alopecurus myosuroides (ALOMY), Setaria faberi (SETFA), Echinochloa crus-galli (ECHCG), Solanum nigrum (SOLNI) and Amaranthus retoflexus (AMARE)). After cultivation for one day (pre-emergence) or after 8 days cultivation (post-emergence) under controlled conditions in a glasshouse (at 24/16° C., day/night; 14 hours light; 65% humidity), the plants were sprayed with an aqueous spray solution derived from the formulation of the technical active ingredient in acetone/water (50:50) solution containing 0.5% Tween 20 (polyoxyethelyene sorbitan monolaurate, CAS RN 9005-64-5). Compounds were applied at 1000 g/ha. The test plants were then grown in a glasshouse under controlled conditions in a glasshouse (at 24/16° C., day/night; 14 hours light; 65% humidity) and watered twice daily. After 13 days for pre and post-emergence, the test was evaluated (100=total damage to plant; 0=no damage to plant).

Test [2] deals with Alopecurus myosuroides (ALOMY). In words: Post-emergence herbicidal glasshouse test. Conditions: post-emergence (sprayed after 8 days cultivation), evaluated after 13 days, 100=total damage to plant, 0=no damage to plant; for POST Application ALOMY, damage to plant: 1000 g/ha; for pest or weed control at 1000 g/ha: Alopecurus myosuroides, 312 h, read-out: POST Application ALOMY, damage to plant. As to the method: as §1

The subject of test [3] is Solanum nigrum (SOLNI). In words: Post-emergence herbicidal glasshouse test. The settings on record: post-emergence (sprayed after 8 days cultivation), evaluated after 13 days, 100=total damage to plant, 0=no damage to plant; for POST Application SOLNI, damage to plant: 1000 g/ha; for pest or weed control at 1000 g/ha: Solanum nigrum, 312 h, read-out: POST Application SOLNI, damage to plant. As to the method:
as §1

Test [4] concerns Echinochloa crus-galli (ECHCG). In words: Post-emergence herbicidal glasshouse test. Conditions: post-emergence (sprayed after 8 days cultivation), evaluated after 13 days, 100=total damage to plant, 0=no damage to plant; for POST Application ECHCG, damage to plant: 1000 g/ha; for pest or weed control at 1000 g/ha: Echinochloa crus-galli, 312 h, read-out: POST Application ECHCG, damage to plant. As to the method: as §1

Test [5] has as its system Setaria faberi (SETFA). The experiment in a line: Post-emergence herbicidal glasshouse test. Conditions: post-emergence (sprayed after 8 days cultivation), evaluated after 13 days, 100=total damage to plant, 0=no damage to plant; for POST Application SETFA, damage to plant: 1000 g/ha; for pest or weed control at 1000 g/ha: Setaria faberi, 312 h, read-out: POST Application SETFA, damage to plant. How it is done:
as §1

The test system of test [6] is Amaranthus retoflexus (AMARE). The experiment in a line: Pre-emergence herbicidal glasshouse test. The settings on record: pre-emergence (sprayed after one day cultivation), evaluated after 13 days, 100=total damage to plant, 0=no damage to plant; for PRE Application AMARE, damage to plant: 1000 g/ha; for pest or weed control at 1000 g/ha: Amaranthus retroflexus, 312 h, read-out: PRE Application AMARE, damage to plant. How it is done:
as §1

Test [7] has as its system Alopecurus myosuroides (ALOMY). In words: Pre-emergence herbicidal glasshouse test. Conditions: pre-emergence (sprayed after one day cultivation), evaluated after 13 days, 100=total damage to plant, 0=no damage to plant; for PRE Application ALOMY, damage to plant: 1000 g/ha; for pest or weed control at 1000 g/ha: Alopecurus myosuroides, 312 h, read-out: PRE Application ALOMY, damage to plant. How it is done:
as §1

Test [8] deals with Solanum nigrum (SOLNI). The experiment in a line: Pre-emergence herbicidal glasshouse test. The settings on record: pre-emergence (sprayed after one day cultivation), evaluated after 13 days, 100=total damage to plant, 0=no damage to plant; for PRE Application SOLNI, damage to plant: 1000 g/ha; for pest or weed control at 1000 g/ha: Solanum nigrum, 312 h, read-out: PRE Application SOLNI, damage to plant. As to the method: as §1

The test system of test [9] is Echinochloa crus-galli (ECHCG). In words: Pre-emergence herbicidal glasshouse test. The settings on record: pre-emergence (sprayed after one day cultivation), evaluated after 13 days, 100=total damage to plant, 0=no damage to plant; for PRE Application ECHCG, damage to plant: 1000 g/ha; for pest or weed control at 1000 g/ha: Echinochloa crus-galli, 312 h, read-out: PRE Application ECHCG, damage to plant. As to the method: as §1

Test [10] concerns Setaria faberi (SETFA). The experiment in a line: Pre-emergence herbicidal glasshouse test. The settings on record: pre-emergence (sprayed after one day cultivation), evaluated after 13 days, 100=total damage to plant, 0=no damage to plant; for PRE Application SETFA, damage to plant: 1000 g/ha; for pest or weed control at 1000 g/ha: Setaria faberi, 312 h, read-out: PRE Application SETFA, damage to plant. As to the method:
as §1

`COCc1nc2ncc(F)cc2cc1C(=O)C1C(=O)CCCC1=O` [Compound 1.74, 2-[6-fluoro-2-methoxymethyl-[1,8]-naphthyridine-3-carbony]-cyclohexane-1,3-dione]: the “POST Application AMARE, damage to plant” value in test [1] worked out at 90. Moreover, the “POST Application ALOMY, damage to plant” value in test [2] is given as 40. Also, the “POST Application SOLNI, damage to plant” value in the test on Solanum nigrum (SOLNI) [3] turned out to be 80. The “POST Application ECHCG, damage to plant” value in test [4] was 80. For the same compound, the “POST Application SETFA, damage to plant” value with Setaria faberi (SETFA) [5] is listed as 80. For the same compound, the “PRE Application AMARE, damage to plant” value in test [6] is on record as 100. The “PRE Application ALOMY, damage to plant” value in test [7] is on record as 70. Besides, the “PRE Application SOLNI, damage to plant” value in the test on Solanum nigrum (SOLNI) [8] was determined as 100. Moreover, in test [9], the “PRE Application ECHCG, damage to plant” value is 100. The “PRE Application SETFA, damage to plant” value with Setaria faberi (SETFA) [10] came out at 100.
As to `CC(C)c1nc2nc(C(F)(F)F)c(C(=O)C3C(=O)CCCC3=O)cc2cc1F` [Compound 1.75, 2-[6-fluoro-7-methylethyl-2-trifluoromethyl-[1,8]-naphthyridine-3-carbony]-cyclohexane-1,3-dione], the pest or weed control at 1000 g/ha was determined as 80% in test [1]; 80% in [2]; 90% with Solanum nigrum (SOLNI) [3]; 90% in [4]; 90% in the test on Setaria faberi (SETFA) [5]; 80% in test [6]. For the same compound, the pest or weed control at 1000 g/ha in test [7] worked out at 80%; in the test on Solanum nigrum (SOLNI) [8] it was 90%; in [9], 90%; with Setaria faberi (SETFA) [10] it was 90%.
Turning to `Cc1nc2nc(C(F)F)c(C(=O)C3C(=O)CCCC3=O)cc2cc1F` [Compound 1.78, 2-(2-difluoromethyl-6-fluoro-7-methyl-[1,8]-naphthyridine-3-carbonyl)-cyclohexane-1,3-dione], the pest or weed control at 1000 g/ha came to 100% in test [1]; 60% in test [2]; 80% in the test with Solanum nigrum (SOLNI) [3]; 90% in test [4]; 90% in the test with Setaria faberi (SETFA) [5]; 100% in test [6]. For the same compound, the pest or weed control at 1000 g/ha worked out at 80% in [7], 100% with Solanum nigrum (SOLNI) [8], 100% in test [9] and 100% in the test with Setaria faberi (SETFA) [10].
Take `COCCN(C)c1nc2nc(C(F)(F)F)c(C(=O)C3C(=O)CCCC3=O)cc2cc1F` [Compound 1.80, 2-[6-fluoro-7-(2-methoxyethylmethylamino)-2-trifluoromethyl-[1,8]-naphthyridine-3-carbony]-cyclohexane-1,3-dione]: the “POST Application AMARE, damage to plant” value in [1] stood at 80. The “POST Application ALOMY, damage to plant” value in [2] is reported as 80. Moreover, the “POST Application SOLNI, damage to plant” value in the test with Solanum nigrum (SOLNI) [3] turned out to be 80. The “POST Application ECHCG, damage to plant” value in [4] came out at 90. Also, in the test with Setaria faberi (SETFA) [5], the “POST Application SETFA, damage to plant” value amounted to 80. In addition, the “PRE Application AMARE, damage to plant” value in test [6] is given as 100. Further, the “PRE Application ALOMY, damage to plant” value in test [7] came to 80. For the same compound, in the test on Solanum nigrum (SOLNI) [8], the “PRE Application SOLNI, damage to plant” value is on record as 100. The “PRE Application ECHCG, damage to plant” value in test [9] is given as 100. For the same compound, the “PRE Application SETFA, damage to plant” value in the test with Setaria faberi (SETFA) [10] was 100.
`CCN(C)c1nc2nc(C(F)(F)F)c(C(=O)C3C(=O)CCCC3=O)cc2cc1F` [Compound 1.81, 2-[6-fluoro-7-(N-methylethylamino)-2-trifluoromethyl-[1,8]-naphthyridine-3-carbony]-cyclohexane-1,3-dione]: the “POST Application AMARE, damage to plant” value in test [1] was 90. Also, in test [2], the “POST Application ALOMY, damage to plant” value stood at 70. The “POST Application SOLNI, damage to plant” value with Solanum nigrum (SOLNI) [3] is reported as 80. For the same compound, the “POST Application ECHCG, damage to plant” value in test [4] amounted to 90. Also, in the test with Setaria faberi (SETFA) [5], the “POST Application SETFA, damage to plant” value worked out at 80. Further, in test [6], the “PRE Application AMARE, damage to plant” value was found to be 100. For the same compound, the “PRE Application ALOMY, damage to plant” value in test [7] is given as 70. Moreover, the “PRE Application SOLNI, damage to plant” value in the test on Solanum nigrum (SOLNI) [8] was found to be 100. In [9], the “PRE Application ECHCG, damage to plant” value stood at 100. Moreover, the “PRE Application SETFA, damage to plant” value in the test on Setaria faberi (SETFA) [10] worked out at 100.
In the case of `COCCNc1nc2nc(C(F)(F)F)c(C(=O)C3C(=O)CCCC3=O)cc2cc1F` [Compound 1.83, 2-[6-fluoro-7-(2-methoxyethylamino)-2-trifluoromethyl-[1,8]-naphthyridine-3-carbony]-cyclohexane-1,3-dione], the “POST Application AMARE, damage to plant” value in test [1] came to 80. Moreover, in test [2], the “POST Application ALOMY, damage to plant” value was found to be 80. Further, the “POST Application SOLNI, damage to plant” value in the test on Solanum nigrum (SOLNI) [3] amounted to 80. The “POST Application ECHCG, damage to plant” value in test [4] was 80. Further, in the test with Setaria faberi (SETFA) [5], the “POST Application SETFA, damage to plant” value worked out at 80. Moreover, in [6], the “PRE Application AMARE, damage to plant” value turned out to be 100. The “PRE Application ALOMY, damage to plant” value in [7] came out at 60. Moreover, in the test on Solanum nigrum (SOLNI) [8], the “PRE Application SOLNI, damage to plant” value came to 100. Moreover, the “PRE Application ECHCG, damage to plant” value in test [9] is recorded as 100. Further, the “PRE Application SETFA, damage to plant” value in the test on Setaria faberi (SETFA) [10] turned out to be 100.
For the compound `CCNc1nc2nc(C(F)(F)F)c(C(=O)C3C(=O)CCCC3=O)cc2cc1F` [Compound 1.84], the pest or weed control at 1000 g/ha amounted to 80% in [1]; 70% in test [2]; 80% in the test with Solanum nigrum (SOLNI) [3]; 80% in test [4]; 80% with Setaria faberi (SETFA) [5]; 100% in test [6]. In addition, the pest or weed control at 1000 g/ha in test [7] came out at 60%; in the test with Solanum nigrum (SOLNI) [8] it was 100%; in test [9], 100%; in the test with Setaria faberi (SETFA) [10], 100%.
For `Cc1ccc2cc(C(=O)C3C(=O)CCCC3=O)c(C(F)F)nc2n1` [Compound 1.85, 2-(2-difluoromethyl-7-methyl-[1,8]-naphthyridine-3-carbonyl)-cyclohexane-1,3-dione], the pest or weed control at 1000 g/ha in [1] was 80%; in [2] it was 50%; with Solanum nigrum (SOLNI) [3], 80%; in test [4], 80%; in the test with Setaria faberi (SETFA) [5], 80%; in test [6], 90%. The pest or weed control at 1000 g/ha came out at 10% in test [7], 100% with Solanum nigrum (SOLNI) [8], 100% in [9] and 80% in the test on Setaria faberi (SETFA) [10].
`CCCCc1nc2nc(C(F)(F)F)c(C(=O)C3C(=O)CCCC3=O)cc2cc1F` [Compound 1.86, 2-[7-butyl-6-fluoro-2-trifluoromethyl-[1,8]-naphthyridine-3carbony]-cyclohexane-1,3-dione]: the pest or weed control at 1000 g/ha in [1] was 100%; in test [2], 70%; in the test with Solanum nigrum (SOLNI) [3], 90%; in test [4], 80%; in the test on Setaria faberi (SETFA) [5], 90%; in test [6], 100%. Also, the pest or weed control at 1000 g/ha in test [7] was determined as 80%; with Solanum nigrum (SOLNI) [8], 100%; in test [9], 100%; in the test on Setaria faberi (SETFA) [10], 100%.
